Reference: PMC10945332, “Precision peptide theranostics: developing N- to C-terminus optimized theranostics targeting cholecystokinin-2 receptor” (Theranostics, 2024)
Like-named read-outs stand apart in the source and are kept apart here. Where a SMILES comes first, the peptide text is derived from it. [ ]: non-standard residue; d: D form. The star is where a group is joined. DOTA = O=C(O)CN1CCN(CC(=O)O)CCN(CC(=O)*)CCN(CC(=O)O)CC1; 1Nal = N[C@@H](Cc1cccc2ccccc12)C(=O)O; NMeNle = CCCC[C@H](NC)C(=O)O; Sar = CNCC(=O)O

Key:
human CCK2R = target: T1, human CCK2R (Homo sapiens, UniProt P32239); test: Competitive binding against [177Lu]Lu-DOTA-CP04 in A431-CCK2R cells; settings: for IC50: N-terminal free linear peptides, vs [177Lu]Lu-DOTA-CP04 in A431-CCK2R cells, average of 2-4 biological replicates, read-out: IC50
T1 construct: stably transfected to over-express the human full-length CCK2R (A431-CCK2R); expressed in transfected cells
T1 sequence (P32239 1-447): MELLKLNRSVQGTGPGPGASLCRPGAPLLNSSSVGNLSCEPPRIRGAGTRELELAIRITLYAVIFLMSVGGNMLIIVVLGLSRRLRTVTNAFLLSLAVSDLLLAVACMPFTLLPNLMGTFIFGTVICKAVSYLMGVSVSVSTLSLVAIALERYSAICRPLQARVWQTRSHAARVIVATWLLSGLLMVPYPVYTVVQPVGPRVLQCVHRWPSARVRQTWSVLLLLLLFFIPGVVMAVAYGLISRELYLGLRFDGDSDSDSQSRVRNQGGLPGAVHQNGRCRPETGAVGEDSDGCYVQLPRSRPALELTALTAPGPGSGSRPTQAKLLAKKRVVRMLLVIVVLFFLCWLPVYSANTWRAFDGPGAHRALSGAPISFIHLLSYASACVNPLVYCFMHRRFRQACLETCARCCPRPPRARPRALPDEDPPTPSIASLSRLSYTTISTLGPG
Experimental: Materials and Methods: Biology […]
In Vitro CCK2R-Ligand Competitive Binding Assays
All CCK2R binding experiments were conducted using A431 (human epidermoid carcinoma) […]
cells stably transfected to over-express the human full-length CCK2R (A431-CCK2R) (gifted […]
by Dr. Elisabeth von Guggenberg, Medizinische Universität Innsbruck).[41] As a negative […]
control, A431 cells stably transfected with an empty vector were analysed simultaneously […]
(A431-EV). All A431 cells were maintained in DMEM (Gibco, Australia) media supplemented […]
with 10% foetal calf serum and 250 µg/mL G418 as described previously.[32]
The affinity of all peptides for the CCK2R was evaluated using competitive binding assays […]
Briefly, 48 hours before the experiment […]
cells were plated at a density of 300,000 cells per well in 12 well plates. On the day of the […]
experiment, linear peptides were diluted in DMEM supplemented with 1% foetal calf serum to […]
DOTA-CP04 was added to each dilution. Cells were washed twice in ice-cold binding buffer […]
(DMEM supplemented with 1% foetal calf serum) and resuspended in 1 mL of the pre-prepared […]
peptide mix before being incubated at room temperature for 1 hour. Post-incubation the media […]
was removed and kept for analysis (unbound fraction) and the cells were washed twice in ice- […]
cold PBS which was pooled with the unbound fraction. Finally, 1 M NaOH (150µL) was added […]
to the wells and allowed to incubate for 5 min before lysates were collected (bound fraction).
A small volume of lysate was kept aside to determine protein concentration using the Pierce® BCA protein assay kit (Thermo Fisher, Australia). All samples were analysed using the Perkin […]
normalised according to protein concentration. Half maximal inhibitory concentration (IC50) was determined using nonlinear regression calculated using Gr aphPad Prism Software (GraphPad Software, California, USA). […]

[1] = mouse, in vivo
Experimental: (§1) In order to assess these promising ligands as potential theranostics, the library of [^68Ga]Ga-DOTA-peptides was evaluated using static small animal PET imaging and quantifying biodistribution studies. This study was performed to investigate tumor uptake as well as the accumulation of radioligands in other organs. Mice bearing A431-CCK2R tumors were imaged at 1- and 2 hours post tracer injection, and tracer biodistribution was evaluated at the 1 hour and 2.5 hour time points to quantify tumor uptake and retention. […]
(§2) Small Animal PET Imaging and Biodistribution Studies
(§3) Female NSG mice (age 11-14 weeks) were sourced from Animal Resources Centre, (Canning Vale, Western Australia) and were inoculated subcutaneously on the right flank with 1-3 x 106 […]
(§4) A431-CCK2R cells in PBS:Matrigel (1:1). […]
(§5) Mice were assigned to imaging and/or biodistribution groups (tumour volumes: 119-327 mm3).
(§6) The respective 68Ga labelled tracer (1.63–3.81 MBq, 170µL, 13.7–14.2 pmoles) containing vehicle solution (75µL, DMSO:Tween 80: water, 2:2:6 v/v/v) was then administered to mice intravenously via tail vein injection. Three mice were euthanized for biodistribution 1 hour post injection (n=3) and selected tissues were excised, weighed, and counted using a Capintec (Captus 4000e) gamma counter. Three mice were anaesthetised using 1.5% isoflurane and imaged at 1 hour (n=3) and 2 hours (n=3) with a G8 Small Animal PET/CT scanner (Perkin […]
(§7) Elmer/Sofie Biosciences). A 10 min static PET scan was acquired, followed immediately by a CT scan (Supplementary Data, pS51–S55). PET images were acquired using the G8 acquisition engine software and reconstructed using a 3D maximal likelihood and expectation maximization (ML-EM) algorithm. PET images were analysed using VivoQuant software, version 3.0 (inviCRO Imaging Services and Software) to quantify maximum standardised uptake value in regions of interest (SUVmax). Background regions for imaging experiments were calculated by quantitating mean standardised uptake value (SUVmean) of the abdomen and gut region. The region of interest was selected due to low uptake in abdomen/gut during imaging. After imaging the 2-hour time point, mice organs were harvested for biodistribution […]
(§8) For blocking CCK2R binding a solution of N-[(3R)-2,3-Dihydro-1-[2-(2-methylphenyl)-2-oxoethyl]-2-oxo-5-phenyl-1H-1,4-benzodiazepin-3-yl]-N′-(3-methylphenyl)-urea (YM022; Sigma Aldrich) was used. YM022 (75µL of a 1 mg/ml solution constituting DMSO:Tween 80: water, 2:2:6 v/v/v) was added to the respective 68Ga labelled tracer (1.41–3.61 MBq, 100 µL, 13.7–14.2 pmoles) and this mixture ([…]) was administered in three mice intravenously via tail vein injection and organs harvested at 1 hour post injection for biodistribution analysis, as above.
(§9) All animal experiments were performed with the approval of the Peter MacCallum Cancer Centre Animal Experimentation Ethics Committee and in accordance with the Australian code for the care and use of animals for scientific purposes, 8th Edition, 2013 (AEEC Approval

[2] = assay type: physicochemical
Experimental: Lipophilicity, expressed as the octanol-water partition coefficient, constitutes an important property in drug action, influencing both pharmacokinetic and pharmacodynamics processes. The distribution coefficient (LogD7.4) of [^68Ga]Ga-DOTA-peptides was determined by measuring radioactivity distribution in the aqueous phase (phosphate buffer pH7.4) and the organic phase (n-octanol). […]
To determine the distribution coefficient (logD 7.4), 68Ga radiolabeled peptides [68Ga]Ga-DOTA-GA4, [68Ga]Ga-DOTA-GA7, and [68Ga]Ga-DOTA-GA11–GA13 were diluted to approximately 20 pmol/mL in PBS (pH 7.4) and an equal volume of n-octanol was added. The mixture was vortexed vigorously for 10 cycles of 1 min at room temperature before being centrifuged for 6 min to separate the two phases. Equal volumes from each phase were aliquoted into individual counting tubes and analysed for 1 min using the Perkin Elmer 2480 Wizard2™ gamma counter (PerkinElmer, Massachusetts, USA). The distribution coefficient was calculated using the following equation LogD = […]. […]

[3] = assay type: in vitro ADME, mouse; settings: mouse, tissue homogenate
Experimental: Metabolic stability is an important determinant of the efficacy of peptide radiopharmaceuticals and their progression as promising theranostic candidates. In vitro, metabolic degradation through hepatic and renal enzymes can be assessed by utilizing liver and kidney tissue homogenates. Radiolabeled peptides [^68Ga]Ga-DOTA-GA4, and D-Ala substituted variants [^68Ga]Ga-DOTA-GA7, [^68Ga]Ga-DOTA-GA11-GA13 were incubated in liver and kidney mouse homogenates, in human serum at 37°C, and in HEPES buffer (pH 7.4) as a negative control. Following a time course experiment, the metabolites were analyzed using HPLC to quantify the % breakdown of the respective parent peptide. […]
To assess the stability of 68Ga radiolabeled peptides against enzymatic degradation, duplicate samples (750-900 pmol/mL, 2-5MBq) were incubated at 37 ℃ with pooled human serum, 15% […]
mouse kidney homogenate, 30% mouse liver homogenate or 20 mM HEPES, pH 7.3 (control).
Human blood was collected, and serum prepared using SSTII advance vacutainer tubes according to the manufacturer’s instructions (Becton Dickinson, New Jersey, USA). Mouse kidney and liver homogenates were prepared by washing the tissues in ice-cold HEPES buffer, pH 7.3 and placing them in pre-chilled tubes containing HEPES buffer and 2.38 mm metal beads (Mo-Bio Laboratories, Hilden, Germany). Tissues were homogenised using the PowerLyzer24 homogeniser (Qiagen, Hilden, Germany) according to the manufacturer’s instructions. 68Ga radiolabeled peptides were then incubated with the various lysates at 37 ℃ and samples were collected at 15, 30, 60 and 90 min. Reactions were terminated by addition of an equal volume of acetonitrile and centrifugation for 2 min at 15,000 rpm. Supernatants were diluted in water before being analysed by HPLC using a Kinetex C18 XB column (5µm

in vivo = settings: female, NSG, mouse, iv, total radioactivity
Experimental: as §1, §2, §3, §4, §5, §6, §7, §8, §9

CCCC[C@@H](C(=O)N[C@@H](CC(=O)O)C(=O)N[C@@H](Cc1cccc2ccccc12)C(N)=O)N(C)C(=O)[C@H](Cc1c[nH]c2ccccc12)NC(=O)CN(C)C(=O)[C@H](Cc1ccc(O)cc1)NC(=O)[C@H](C)NC(=O)[C@@H](CCC(=O)O)NC(=O)[C@@H](CCC(=O)O)NC(=O)[C@@H](CCC(=O)O)NC(=O)[C@@H](CCC(=O)O)NC(=O)[C@@H](C)NC(=O)[C@H](N)CCC(=O)O [GA6] (H-[dE][dA][dE][dE][dE][dE]AY[Sar]W[NMeNle]D[1Nal]-NH2)
IC50 (human CCK2R): 1.23 nM

CCCC[C@@H](C(=O)N[C@@H](CC(=O)O)C(=O)N[C@@H](Cc1cccc2ccccc12)C(N)=O)N(C)C(=O)[C@H](Cc1c[nH]c2ccccc12)NC(=O)CN(C)C(=O)[C@H](Cc1ccc(O)cc1)NC(=O)[C@H](C)NC(=O)[C@@H](CCC(=O)O)NC(=O)[C@@H](CCC(=O)O)NC(=O)[C@@H](CCC(=O)O)NC(=O)[C@@H](C)NC(=O)[C@@H](CCC(=O)O)NC(=O)[C@H](N)CCC(=O)O [GA7] (H-[dE][dE][dA][dE][dE][dE]AY[Sar]W[NMeNle]D[1Nal]-NH2)
IC50 (human CCK2R): 0.184 nM
fold improvement of activity over CP04 (human CCK2R; linear peptides): greater than 10 fold
fold improvement of affinity over GA1 (human CCK2R; linear peptides): ~2 fold

CCCC[C@@H](C(=O)N[C@@H](CC(=O)O)C(=O)N[C@@H](Cc1cccc2ccccc12)C(N)=O)N(C)C(=O)[C@H](Cc1c[nH]c2ccccc12)NC(=O)CN(C)C(=O)[C@H](Cc1ccc(O)cc1)NC(=O)[C@H](C)NC(=O)[C@@H](CCC(=O)O)NC(=O)[C@@H](CCC(=O)O)NC(=O)[C@@H](C)NC(=O)[C@@H](CCC(=O)O)NC(=O)[C@@H](CCC(=O)O)NC(=O)[C@H](N)CCC(=O)O [GA8] (H-[dE][dE][dE][dA][dE][dE]AY[Sar]W[NMeNle]D[1Nal]-NH2)
IC50 (human CCK2R): 1.62 nM

CCCC[C@@H](C(=O)N[C@@H](CC(=O)O)C(=O)N[C@@H](Cc1cccc2ccccc12)C(N)=O)N(C)C(=O)[C@H](Cc1c[nH]c2ccccc12)NC(=O)CN(C)C(=O)[C@H](Cc1ccc(O)cc1)NC(=O)[C@H](C)NC(=O)[C@@H](C)NC(=O)[C@@H](CCC(=O)O)NC(=O)[C@@H](CCC(=O)O)NC(=O)[C@@H](CCC(=O)O)NC(=O)[C@@H](CCC(=O)O)NC(=O)[C@H](N)CCC(=O)O [GA10] (H-[dE][dE][dE][dE][dE][dA]AY[Sar]W[NMeNle]D[1Nal]-NH2)
IC50 (human CCK2R): 1.62 nM

CCCC[C@@H](C(=O)N[C@@H](CC(=O)O)C(=O)N[C@@H](Cc1cccc2ccccc12)C(N)=O)N(C)C(=O)[C@H](Cc1c[nH]c2ccccc12)NC(=O)CN(C)C(=O)[C@H](Cc1ccc(O)cc1)NC(=O)[C@H](C)NC(=O)[C@@H](CCC(=O)O)NC(=O)[C@@H](CCC(=O)O)NC(=O)[C@@H](CCC(=O)O)NC(=O)[C@@H](C)NC(=O)[C@@H](CCC(=O)O)NC(=O)[C@@H](CCC(=O)O)NC(=O)CN1CCN(CC(=O)O)CCN(CC(=O)O)CCN(CC(=O)O)CC1 [[^68Ga]Ga-DOTA-GA7, metal not drawn] ({DOTA}-[dE][dE][dA][dE][dE][dE]AY[Sar]W[NMeNle]D[1Nal]-NH2)
tissue uptake at 1 h ([1]; 3 mg/kg, Uptake in A431-CCK2R Tumors, 1 hr Blocked): 2.76 ± 0.14 %ID/g
tissue uptake at 1 h ([1]; Uptake in A431-CCK2R Tumors, 1 hr): 5.71 ± 1.5 %ID/g
tissue uptake at 2.5 h ([1]; Uptake in A431-CCK2R Tumors, 2.5 hr): 7.36 ± 1.16 %ID/g
tissue uptake at 1 h ([1]; Uptake in Organs: Blood): 0.68 ± 0.31 %ID/g
tissue uptake at 1 h ([1]; Uptake in Organs: Heart): 0.3 ± 0.02 %ID/g
tissue uptake at 1 h ([1]; Uptake in Organs: Kidneys): 8.67 ± 0.8 %ID/g
tissue uptake at 1 h ([1]; Uptake in Organs: Liver): 0.3 ± 0.01 %ID/g
tissue uptake at 1 h ([1]; Uptake in Organs: Lungs): 0.57 ± 0.03 %ID/g
tissue uptake at 1 h ([1]; Uptake in Organs: Muscle): 0.12 ± 0.02 %ID/g
tissue uptake at 1 h ([1]; Uptake in Organs: Spleen): 0.24 ± 0.02 %ID/g
tissue uptake at 1 h ([1]; Uptake in Organs: Stomach): 2.22 ± 0.14 %ID/g
logD [2]: -2.88 ± 0.09
half-life ([3]; Half-life (t1/2) in Kidney Homogenate): 3.76 h
half-life ([3]; Half-life (t1/2) in Liver Homogenate): 5.87 h
tissue to tissue ratio at 1 h (in vivo): 17.3 ± 1.84
SUV at 1 h (in vivo; SUVmax): 0.65 SUV
SUV at 2 h (in vivo; SUVmax): 0.61 SUV
